Measurements as given in patent US20050208496A1, “Methods of testing for bronchial asthma or chronic obstructive pulmonary disease” (Genox Research, Inc., priority 2002, published 2005).

System: respiratory epithelial cells

IL-13: human IL-13 (Peprotech, Inc.) added to the medium at 50 ng/mL to stimulate respiratory epithelial cells
CH25H (32363_at) expression, fold change upon IL-13 stimulation (lot 1, Day 3, IMM method): 8.9 fold | CTSC (133_at) expression, fold change upon IL-13 stimulation (lot 1, Day 3, IMM method): 4.7 fold | CXCL16 (44095_at) expression fold change (lot 1, Day 3, IMM method): 2.5 fold | DD96 (31610_at) expression, fold change upon IL-13 stimulation (lot 1, Day 3, IMM method): 11.4 fold | DDIT3 (39420_at) expression, fold change upon IL-13 stimulation (lot 1, Day 3, IMM method): 2.3 fold | DKFZP564O0823 (41402_at) expression, fold change upon IL-13 stimulation (lot 1, Day 3, IMM method): 6.7 fold | DKFZP566J091 (57197_at) expression fold change (lot 1, Day 3, IMM method): 8.2 fold | DPYD (38220_at) expression fold change upon IL-13 stimulation (lot 1, Day 3, IMM method): 7.5 fold | EMILIN-2 (51628_at) expression fold change (lot 1, Day 3, IMM method): 2.8 fold | FABP4 (38430_at) expression, fold change upon IL-13 stimulation (lot 1, Day 3, IMM method): 2.6 fold | FETUB (32620_at) expression fold change (lot 1, Day 3, IMM method): 4.1 fold | FLJ10261 (43366_at) expression fold change (lot 1, Day 3, IMM method): 8.2 fold | FLJ10261 (43963_at) expression fold change (lot 1, Day 3, IMM method): 6.6 fold | FLJ22693 (53777_at) expression fold change (lot 1, Day 3, IMM method): 2.1 fold | FUT10 (908_at) expression fold change upon IL-13 stimulation (lot 1, Day 3, IMM method): 4 fold | G1P3 (1358_s_at) expression, fold change upon IL-13 stimulation (lot 1, Day 3, IMM method): 7.1 fold | GBP5 (52615_at) expression fold change (lot 1, Day 3, IMM method): 2.5 fold | HDAC9 (37483_at) expression fold change upon IL-13 stimulation (lot 1, Day 3, IMM method): 3.1 fold | HLA-F (37420_i_at) expression, fold change upon IL-13 stimulation (lot 1, Day 3, IMM method): 3 fold | HLA-F (49203_f_at) expression fold change (lot 1, Day 3, IMM method): 3.1 fold | HS3ST1 (41556_s_at) expression fold change upon IL-13 stimulation (lot 1, Day 3, IMM method): 2.2 fold | IFI27 (425_at) expression, fold change upon IL-13 stimulation (lot 1, Day 3, IMM method): 4.5 fold | IFI27 (48864_at) expression fold change (lot 1, Day 3, IMM method): 4 fold | IFI35 (464_s_at) expression, fold change upon IL-13 stimulation (lot 1, Day 3, IMM method): 9.6 fold | IFI44 (37641_at) expression, fold change upon IL-13 stimulation (lot 1, Day 3, IMM method): 8 fold | IFIT1 (915_at) expression, fold change upon IL-13 stimulation (lot 1, Day 3, IMM method): 9.9 fold | IFIT1 (32814_at) expression, fold change upon IL-13 stimulation (lot 1, Day 3, IMM method): 7.6 fold | IFIT4 (38584_at) expression, fold change upon IL-13 stimulation (lot 1, Day 3, IMM method): 10.4 fold | IFITM1 (675_at) expression, fold change upon IL-13 stimulation (lot 1, Day 3, IMM method): 19.9 fold | IL13RA2 (1016_s_at) expression fold change upon IL-13 stimulation (lot 1, Day 3, IMM method): 5.1 fold | IL19 (47855_at) expression fold change (lot 1, Day 3, IMM method): 9.1 fold | ILIRL1 (40322_at) expression, fold change upon IL-13 stimulation (lot 1, Day 3, IMM method): 2.6 fold | IRF7 (36412_s_at) expression fold change (lot 1, Day 3, IMM method): 2.5 fold | ISG15 (1107_s_at) expression, fold change upon IL-13 stimulation (lot 1, Day 3, IMM method): 8.2 fold | ISG15 (38432_at) expression, fold change upon IL-13 stimulation (lot 1, Day 3, IMM method): 27.9 fold | ISG20 (33304_at) expression, fold change upon IL-13 stimulation (lot 1, Day 3, IMM method): 2.4 fold | KIAA0537 (33787_at) expression, fold change upon IL-13 stimulation (lot 1, Day 3, IMM method): 5.8 fold | KIAA1268 (57050_at) expression fold change (lot 1, Day 3, IMM method): 2.8 fold | KRT16 (601_s_at) expression fold change (lot 1, Day 3, IMM method): 4.6 fold | LAMP3 (37168_at) expression, fold change upon IL-13 stimulation (lot 1, Day 3, IMM method): 3.6 fold | LOC57118 (51085_at) expression fold change (lot 1, Day 3, IMM method): 3 fold | LOC64116 (40456_at) expression, fold change upon IL-13 stimulation (lot 1, Day 3, IMM method): 2.9 fold | MDA5 (51920_at) expression fold change (lot 1, Day 3, IMM method): 5.2 fold | MMP7 (668_s_at) expression, fold change upon IL-13 stimulation (lot 1, Day 3, IMM method): 2.2 fold | MX2 (879_at) expression fold change (lot 1, Day 3, IMM method): 8 fold | MXI (37014_at) expression fold change (lot 1, Day 3, IMM method): 10.6 fold | NK4 (39119_s_at) expression fold change upon IL-13 stimulation (lot 1, Day 3, IMM method): 2 fold | NOS2A (1948_f_at) expression fold change upon IL-13 stimulation (lot 1, Day 3, IMM method): 4.3 fold | OAF (39695_at) expression, fold change upon IL-13 stimulation (lot 1, Day 3, IMM method): 3.8 fold | OAS1 (38388_at) expression fold change upon IL-13 stimulation (lot 1, Day 3, IMM method): 5.5 fold | OAS1 (38389_at) expression fold change upon IL-13 stimulation (lot 1, Day 3, IMM method): 5.3 fold | OAS2 (39263_at) expression fold change upon IL-13 stimulation (lot 1, Day 3, IMM method): 2.9 fold | OSF-2 (1451_s_at) expression fold change upon IL-13 stimulation (lot 1, Day 3, IMM method): 8.8 fold | PAK2 (1560_g_at) expression, fold change upon IL-13 stimulation (lot 1, Day 3, IMM method): −2.1 fold | PLS1 (39951_at) expression fold change (lot 1, Day 3, IMM method): 2.9 fold | PLSCR1 (32775_r_at) expression fold change upon IL-13 stimulation (lot 1, Day 3, IMM method): 2.6 fold | PMCH (32005_at) expression fold change (lot 1, Day 3, IMM method): 3.3 fold | PSMB9 (38287_at) expression fold change upon IL-13 stimulation (lot 1, Day 3, IMM method): 2.3 fold | RASGRP1 (33291_at) expression fold change (lot 1, Day 3, IMM method): 2.6 fold | RIG-1 (59215_at) expression fold change (lot 1, Day 3, IMM method): 8.7 fold | SCYB10 (431_at) expression fold change upon IL-13 stimulation (lot 1, Day 3, IMM method): 3.9 fold | SCYB11 (35061_at) expression fold change upon IL-13 stimulation (lot 1, Day 3, IMM method): 7.9 fold | SECTM1 (41045_at) expression, fold change upon IL-13 stimulation (lot 1, Day 3, IMM method): 5.2 fold | SERPINB4 (1549_s_at) expression fold change (lot 1, Day 3, IMM method): 67.4 fold | SERPINB6 (34789_at) expression fold change (lot 1, Day 3, IMM method): 2.6 fold | SIAT1 (41352_at) expression fold change upon IL-13 stimulation (lot 1, Day 3, IMM method): 13.1 fold | SLC26A4, pendrin (36376_at) expression fold change (lot 1, Day 3, IMM method): 25.6 fold | SSI-1 (41592_at) expression, fold change upon IL-13 stimulation (lot 1, Day 3, IMM method): 5.8 fold | STAT1 (32860_g_at) expression fold change (lot 1, Day 3, IMM method): 2.4 fold | STAT1 (33338_at) expression fold change (lot 1, Day 3, IMM method): 5.7 fold | TGFB2 (1262_s_at) expression fold change upon IL-13 stimulation (lot 1, Day 3, IMM method): 2 fold | TGM2 (38404_at) expression fold change upon IL-13 stimulation (lot 1, Day 3, IMM method): 5 fold | TSPAN-3 (38612_at) expression, fold change upon IL-13 stimulation (lot 1, Day 3, IMM method): 2.5 fold | UBE2L6 (40505_at) expression fold change upon IL-13 stimulation (lot 1, Day 3, IMM method): 4.2 fold | UFD1L (811_at) expression, fold change upon IL-13 stimulation (lot 1, Day 3, IMM method): 2.3 fold | WARS (38121_at) expression fold change upon IL-13 stimulation (lot 1, Day 3, IMM method): 2.9 fold | diubiquitin (39959_at) expression, fold change upon IL-13 stimulation (lot 1, Day 3, IMM method): 14.4 fold | AA045020 (44676_at) expression change (lot 1, Day 7, AI): −2.9 | AA053401 (56234_r_at) expression change (lot 1, Day 7, AI): −3.5 | AA059445 46293_at expression change (lot 1, Day 7, AI): −3.7 | AA059458 (65626_at) expression change (lot 1, Day 7, AI): −3.4 | AA079839 (69289_at) expression change (lot 1, Day 7, AI): −2.2 | AA151265 (60939_i_at) expression change (lot 1, Day 7, AI): −2.6 | AA151265 (60940_r_at) expression change (lot 1, Day 7, AI): −5.9 | AA160156 (47578_at) expression change (lot 1, Day 7, AI): −4.2 | AA203423 (65699_at) expression change (lot 1, Day 7, AI): −2.6 | AA369887 (87539_i_at) expression change (lot 1, Day 7, AI): −3.6 | AA398155 (48999_at) expression change (lot 1, Day 7, AI): −2 | AA400080 (57282_at) expression change (lot 1, Day 7, AI): −4.2 | AA422178 (53747_at) expression change (lot 1, Day 7, AI): −2.8 | AA428312 (83988_at) expression change (lot 1, Day 7, AI): −2 | AA442232 (59109_at) expression change (lot 1, Day 7, AI): −2.3 | AA456099 (59567_at) expression change (lot 1, Day 7, AI): −2.2 | AA772055 46104_at expression change (lot 1, Day 7, AI): −3 | AA779895 59136_at expression change (lot 1, Day 7, AI): −2.4 | ABCC5 1932_at expression change (lot 1, Day 7, AI): −3.6 | AF052107 38262_at expression change (lot 1, Day 7, AI): −4.1 | AI050855 (64285_at) expression change (lot 1, Day 7, AI): −3.6 | AI432375 (49819_at) expression change (lot 1, Day 7, AI): −4.5 | AI669212 55436_at expression change (lot 1, Day 7, AI): −2.5 | AI740855 (83076_at) expression change (lot 1, Day 7, AI): −2 | AI761647 40191_s_at expression change (lot 1, Day 7, AI): −3 | AI770116 (70124_at) expression change (lot 1, Day 7, AI): −2.3 | AI798733 (64163_at) expression change (lot 1, Day 7, AI): −3.6 | AI829641 (84270_at) expression change (lot 1, Day 7, AI): −3.3 | AI923984 33546_at expression change (lot 1, Day 7, AI): −4.6
